Test results taken from ChEMBL document CHEMBL3885861, “Open TG-GATES”.

Organism: Rattus norvegicus
Assay: Open TG-GATES - Regimen: Single
Assay type: toxicity, organism-based, Sprague-Dawley
Set-up: regimen Single, gender Male, age 6 weeks
Conditions: in vivo, po, 300 mg/kg, route gavage, dose level Middle; for APTT / Bas / Eos / Fbg / Hb / Ht / Lym / MCH / MCHC / MCV / Mono / Neu / PT / Plat / RBC / Ret / WBC: tissue Blood; for KIDNEY_L / KIDNEY_R / KIDNEY_TOTAL: tissue Kidney; for LIVER: tissue Liver; for A/G / ALP / ALT / AST / BUN / CRE / Ca / Cl / DBIL / GLC / IP / K / LDH / Na / PL / RALB / TBIL / TC / TG / TP / gamma-GTP: tissue Plasma

O=C(O)c1cc(/N=N/c2ccc(S(=O)(=O)Nc3ccccn3)cc2)ccc1O [SULFASALAZINE]
TERMINAL_BW (3 h): 212.5 g
APTT (3 h): 18.5 s
Bas (3 h): 0%
Eos (3 h): 1%
Fbg (3 h): 215.2 mg/dL
Hb (3 h): 13.1 g/dL
Ht (3 h): 38.5%
Lym (3 h): 79%
MCH (3 h): 21.3 pg
MCHC (3 h): 34%
MCV (3 h): 62.6 fL
Mono (3 h): 2.6%
Neu (3 h): 16.2%
PT (3 h): 12.9 s
Plat (3 h): 115.5 x10_4/uL
RBC (3 h): 615.6 x10_4/ul
Ret (3 h): 6.7%
WBC (3 h): 93.5 x10_2/uL
KIDNEY_L (3 h): 1 g
KIDNEY_R (3 h): 0.9 g
KIDNEY_TOTAL (3 h): 1.9 g
LIVER (3 h): 9.7 g
A/G (3 h): 1.6
ALP (3 h): 897.6 IU/L
ALT (3 h): 36.6 IU/L
AST (3 h): 61.4 IU/L
BUN (3 h): 10.8 mg/dL
CRE (3 h): 0.4 mg/dL
Ca (3 h): 10.4 mg/dL
Cl (3 h): 102.2 meq/L
DBIL (3 h): 0.064 mg/dL
GLC (3 h): 198.2 mg/dL
IP (3 h): 9.6 mg/dL
K (3 h): 3.7 meq/L
LDH (3 h): 147.2 IU/L
Na (3 h): 140.6 meq/L
PL (3 h): 140 mg/dL
RALB (3 h): 3.3 g/dL
TBIL (3 h): 0.1 mg/dL
TC (3 h): 71.2 mg/dL
TG (3 h): 59.6 mg/dL
TP (3 h): 5.4 g/dL
gamma-GTP (3 h): 1 IU/L
TERMINAL_BW (6 h): 209.1 g
APTT (6 h): 18.9 s
Bas (6 h): 0%
Eos (6 h): 1%
Fbg (6 h): 230.2 mg/dL
Hb (6 h): 13.2 g/dL
Ht (6 h): 39%
Lym (6 h): 76.2%
MCH (6 h): 21.4 pg
MCHC (6 h): 34%
MCV (6 h): 63.1 fL
Mono (6 h): 3%
Neu (6 h): 19%
PT (6 h): 12.6 s
Plat (6 h): 115.4 x10_4/uL
RBC (6 h): 618.8 x10_4/ul
Ret (6 h): 7.4%
WBC (6 h): 81.1 x10_2/uL
KIDNEY_L (6 h): 1 g
KIDNEY_R (6 h): 0.9 g
KIDNEY_TOTAL (6 h): 1.9 g
LIVER (6 h): 9.8 g
A/G (6 h): 1.5
ALP (6 h): 961.6 IU/L
ALT (6 h): 33.8 IU/L
AST (6 h): 68.8 IU/L
BUN (6 h): 11.4 mg/dL
CRE (6 h): 0.4 mg/dL
Ca (6 h): 10.8 mg/dL
Cl (6 h): 102.2 meq/L
DBIL (6 h): 0.072 mg/dL
GLC (6 h): 190 mg/dL
IP (6 h): 9.5 mg/dL
K (6 h): 4 meq/L
LDH (6 h): 191.4 IU/L
Na (6 h): 140.8 meq/L
PL (6 h): 164.4 mg/dL
RALB (6 h): 3.4 g/dL
TBIL (6 h): 0.1 mg/dL
TC (6 h): 88.6 mg/dL
TG (6 h): 79.8 mg/dL
TP (6 h): 5.7 g/dL
gamma-GTP (6 h): 1 IU/L
TERMINAL_BW (9 h): 206.7 g
APTT (9 h): 19.2 s
Bas (9 h): 0%
Eos (9 h): 1%
Fbg (9 h): 233.2 mg/dL
Hb (9 h): 13 g/dL
Ht (9 h): 38.1%
Lym (9 h): 72.8%
MCH (9 h): 21.6 pg
MCHC (9 h): 34.1%
MCV (9 h): 63.2 fL
Mono (9 h): 2.6%
Neu (9 h): 22.6%
PT (9 h): 12.7 s
Plat (9 h): 118.9 x10_4/uL
RBC (9 h): 603 x10_4/ul
Ret (9 h): 7.5%
WBC (9 h): 81.5 x10_2/uL
KIDNEY_L (9 h): 0.9 g
KIDNEY_R (9 h): 0.9 g
KIDNEY_TOTAL (9 h): 1.8 g
LIVER (9 h): 8.6 g
A/G (9 h): 1.5
ALP (9 h): 961.6 IU/L
ALT (9 h): 32.4 IU/L
AST (9 h): 65.2 IU/L
BUN (9 h): 8.8 mg/dL
CRE (9 h): 0.3 mg/dL
Ca (9 h): 10.5 mg/dL
Cl (9 h): 103.2 meq/L
DBIL (9 h): 0.064 mg/dL
GLC (9 h): 198.6 mg/dL
IP (9 h): 9.3 mg/dL
K (9 h): 3.5 meq/L
LDH (9 h): 183 IU/L
Na (9 h): 140.8 meq/L
PL (9 h): 149.2 mg/dL
RALB (9 h): 3.3 g/dL
TBIL (9 h): 0.1 mg/dL
TC (9 h): 83.2 mg/dL
TG (9 h): 44.2 mg/dL
TP (9 h): 5.5 g/dL
gamma-GTP (9 h): 1.2 IU/L
TERMINAL_BW (24 h): 224.2 g
APTT (24 h): 17.4 s
Bas (24 h): 0%
Eos (24 h): 0.8%
Fbg (24 h): 233 mg/dL
Hb (24 h): 12.8 g/dL
Ht (24 h): 37.6%
Lym (24 h): 75%
MCH (24 h): 21.2 pg
MCHC (24 h): 34.2%
MCV (24 h): 62.1 fL
Mono (24 h): 2.6%
Neu (24 h): 19.8%
PT (24 h): 12.4 s
Plat (24 h): 122 x10_4/uL
RBC (24 h): 605.8 x10_4/ul
Ret (24 h): 6.5%
WBC (24 h): 104.1 x10_2/uL
KIDNEY_L (24 h): 1 g
KIDNEY_R (24 h): 1 g
KIDNEY_TOTAL (24 h): 1.9 g
LIVER (24 h): 10.6 g
A/G (24 h): 1.4
ALP (24 h): 992.4 IU/L
ALT (24 h): 40 IU/L
AST (24 h): 62.8 IU/L
BUN (24 h): 13.8 mg/dL
CRE (24 h): 0.4 mg/dL
Ca (24 h): 10.9 mg/dL
Cl (24 h): 101.8 meq/L
DBIL (24 h): 0.088 mg/dL
GLC (24 h): 187.2 mg/dL
IP (24 h): 7.2 mg/dL
K (24 h): 3.9 meq/L
LDH (24 h): 224 IU/L
Na (24 h): 140.6 meq/L
PL (24 h): 163.6 mg/dL
RALB (24 h): 3.3 g/dL
TBIL (24 h): 0.1 mg/dL
TC (24 h): 86.8 mg/dL
TG (24 h): 85.6 mg/dL
TP (24 h): 5.6 g/dL
gamma-GTP (24 h): 1.2 IU/L
